# How the values were obtained:
# [1] = tested on: Bacteria: Escherichia coli, Staphylococcus aureus, Pseudomonas aeruginosa, Pseudomonas putida, Burkholderia cepacia, Alcaligenes faecalis; test: Preservation test with periodic inoculation, bacteria assessment; type: cell-based; conditions: sample stored 60 d at 40° C.
# Method in brief: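 Semiquantitative growth scores (−− no growth to ++ strong growth) from weekly agar streaks incubated 3 days at 25 °C. Preserved polymer samples got four weekly 0.5 ml inoculations (titer 10^9 organisms/ml), the first two days after preservative addition; testing began fresh and after 60-day storage at 40 °C.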
# [2] = Iodine color number according to DIN 6162:2014-09; type: physicochemical
# [3] = Analysis of active substance: preservative concentration before and after storage in VI-containing polymer solution; type: physicochemical; conditions: for active-substance concentration, 0 d, RT: before storage; for active-substance concentration, 14 d, 40° C.: storage 14 d at 40° C.; for active-substance concentration, 28 d, 40° C.: storage 28 d at 40° C.; for active-substance concentration, 60 d 40° C.: storage 60 d at 40° C.
# Method in brief: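 Preservatives (MIT, BIT, CMIT, OIT, DCOIT, iodopropynyl butyl carbamate) in aqueous vinylpyrrolidone–vinylimidazole copolymer solution quantified after dilution by isocratic RP18 chromatography with UV detection, using an acid-methanol eluent.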
# [4] = Physical stability; visual assessment (color, turbidity, phase separation); type: physicochemical; set-up: key: ++: no discernible change with respect to color, turbidity or phase separation; +: marginal change in color number, somewhat increased Tyndall effect but no turbidity; 0: easily discernible increase in color number and moderate turbidity−no phase separation; −: turbidity and change in color number readily discernible by visual assessment; −−: strong color change with strong turbidity and incipient phase separation
# Method in brief: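 Scoring was by eye on a scale from ++ to −−, where ++ means no change and −− means strong color change, strong turbidity and incipient phase separation. Color, turbidity and phase separation were the criteria.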
# [5] = Polymer P5 (HP56) with stabilizer
compound,measurement,setting,value
"CCCCCCCCn1sc(Cl)c(Cl)c1=O [DCOIT, dichloroctylisothiazolinone]","60 d 40° C., bact. assess., 4th inoculation",[1]; Polymer P1,"0 (moderate growth, max. 400 colonies)"
same,"60 d 40° C., bact. assess., 4th inoculation",[1]; Polymer P2,+
same,"60 d 40° C., bact. assess., 4th inoculation",[1]; Polymer P3,+
same,"60 d 40° C., bact. assess., 4th inoculation",[1]; Polymer P4,+
same,"60 d 40° C., bact. assess., 4th inoculation",[1]; Polymer P5 (HP56),+
same,"60 d 40° C., bact. assess., 4th inoculation",[1]; Polymer P6,+
same,"60 d 40° C., bact. assess., 4th inoculation",[1]; Polymer P7,+
same,"60 d 40° C., bact. assess., 4th inoculation",[1]; Polymer P8,+
same,"60 d 40° C., bact. assess., 4th inoculation",[1]; Polymer P9,++
same,"Iodine color number, 60 d 40° C.",[2]; Polymer P1 with stabilizer,6.2
same,"Iodine color number, start",[2]; Polymer P1 with stabilizer,3.0
same,"Iodine color number, 60 d 40° C.",[2]; Polymer P2 with stabilizer,8.1
same,"Iodine color number, start",[2]; Polymer P2 with stabilizer,3.1
same,"Iodine color number, 60 d 40° C.",[2]; Polymer P3 with stabilizer,9.1
same,"Iodine color number, start",[2]; Polymer P3 with stabilizer,3.4
same,"Iodine color number, 60 d 40° C.",[2]; Polymer P4 with stabilizer,8.9
same,"Iodine color number, start",[2]; Polymer P4 with stabilizer,3.4
same,"Iodine color number, 60 d 40° C.",[2]; [5],8.7
same,"Iodine color number, start",[2]; [5],3.6
same,"Iodine color number, 60 d 40° C.",[2]; Polymer P6 with stabilizer,8.4
same,"Iodine color number, start",[2]; Polymer P6 with stabilizer,3.6
same,"Iodine color number, 60 d 40° C.",[2]; Polymer P7 with stabilizer,8.4
same,"Iodine color number, start",[2]; Polymer P7 with stabilizer,3.6
same,"Iodine color number, 60 d 40° C.",[2]; Polymer P8 with stabilizer,8.9
same,"Iodine color number, start",[2]; Polymer P8 with stabilizer,3.4
same,"Iodine color number, 60 d 40° C.",[2]; Polymer P9 with stabilizer,14.7
same,"Iodine color number, start",[2]; Polymer P9 with stabilizer,3.9
same,"active-substance concentration, 0 d, RT",[3]; in Polymer P1,300 ppm
same,"active-substance concentration, 14 d, 40° C.",[3]; in Polymer P1,244 ppm
same,"active-substance concentration, 28 d, 40° C.",[3]; in Polymer P1,183 ppm
same,"active-substance concentration, 60 d 40° C.",[3]; in Polymer P1,94 ppm
same,"active-substance concentration, 0 d, RT",[3]; in Polymer P2,300 ppm
same,"active-substance concentration, 14 d, 40° C.",[3]; in Polymer P2,244 ppm
same,"active-substance concentration, 28 d, 40° C.",[3]; in Polymer P2,195 ppm
same,"active-substance concentration, 60 d 40° C.",[3]; in Polymer P2,109 ppm
same,"active-substance concentration, 0 d, RT",[3]; in Polymer P3,300 ppm
same,"active-substance concentration, 14 d, 40° C.",[3]; in Polymer P3,232 ppm
same,"active-substance concentration, 28 d, 40° C.",[3]; in Polymer P3,183 ppm
same,"active-substance concentration, 60 d 40° C.",[3]; in Polymer P3,112 ppm
same,"active-substance concentration, 0 d, RT",[3]; in Polymer P4,300 ppm
same,"active-substance concentration, 14 d, 40° C.",[3]; in Polymer P4,246 ppm
same,"active-substance concentration, 28 d, 40° C.",[3]; in Polymer P4,198 ppm
same,"active-substance concentration, 60 d 40° C.",[3]; in Polymer P4,123 ppm
same,"active-substance concentration, 0 d, RT",[3]; in Polymer P5 (HP56),300 ppm
same,"active-substance concentration, 14 d, 40° C.",[3]; in Polymer P5 (HP56),230 ppm
same,"active-substance concentration, 28 d, 40° C.",[3]; in Polymer P5 (HP56),180 ppm
same,"active-substance concentration, 60 d 40° C.",[3]; in Polymer P5 (HP56),94 ppm
same,"active-substance concentration, 0 d, RT",[3]; in Polymer P6,300 ppm
same,"active-substance concentration, 14 d, 40° C.",[3]; in Polymer P6,222 ppm
same,"active-substance concentration, 28 d, 40° C.",[3]; in Polymer P6,184 ppm
same,"active-substance concentration, 60 d 40° C.",[3]; in Polymer P6,98 ppm
same,"active-substance concentration, 0 d, RT",[3]; in Polymer P7,300 ppm
same,"active-substance concentration, 14 d, 40° C.",[3]; in Polymer P7,228 ppm
same,"active-substance concentration, 28 d, 40° C.",[3]; in Polymer P7,189 ppm
same,"active-substance concentration, 60 d 40° C.",[3]; in Polymer P7,106 ppm
same,"active-substance concentration, 0 d, RT",[3]; in Polymer P8,300 ppm
same,"active-substance concentration, 14 d, 40° C.",[3]; in Polymer P8,230 ppm
same,"active-substance concentration, 28 d, 40° C.",[3]; in Polymer P8,180 ppm
same,"active-substance concentration, 60 d 40° C.",[3]; in Polymer P8,94 ppm
same,"active-substance concentration, 0 d, RT",[3]; in Polymer P9,300 ppm
same,"active-substance concentration, 14 d, 40° C.",[3]; in Polymer P9,219 ppm
same,"active-substance concentration, 28 d, 40° C.",[3]; in Polymer P9,165 ppm
same,"active-substance concentration, 60 d 40° C.",[3]; in Polymer P9,87 ppm
same,"Physical stability, 60 d 40° C.*",[4]; Polymer P1 with stabilizer,−−
same,"Physical stability, 60 d 40° C.*",[4]; Polymer P2 with stabilizer,−−
same,"Physical stability, 60 d 40° C.*",[4]; Polymer P3 with stabilizer,−−
same,"Physical stability, 60 d 40° C.*",[4]; Polymer P4 with stabilizer,−
same,"Physical stability, 60 d 40° C.*",[4]; [5],−−
same,"Physical stability, 60 d 40° C.*",[4]; Polymer P6 with stabilizer,−−
same,"Physical stability, 60 d 40° C.*",[4]; Polymer P7 with stabilizer,−−
same,"Physical stability, 60 d 40° C.*",[4]; Polymer P8 with stabilizer,−−
same,"Physical stability, 60 d 40° C.*",[4]; Polymer P9 with stabilizer,−

# Source: patent publication US12281225B2, “Process for preparing stable polymers containing vinylimidazole” (BASF SE, priority 2018, dated 2025)
